Assay: xn = mol fraction of the nth substance listed
Conditions: 101 kPa, Liquid, Vibrating tube method

Nc1ccccc1 [aniline] + ClCCl
mass density [kg/m3]
Conditions | 288.15 K | 293.15 K | 298.15 K | 303.15 K
x2 = 0.0218 | 1030.69 | 1025.78 | 1021.79 | 1017.43
x2 = 0.1003 | 1048.42 | 1043.36 | 1039.19 | 1034.68
x2 = 0.2004 | 1072.39 | 1067.17 | 1062.72 | 1057.97
x2 = 0.2507 | 1085.02 | 1079.67 | 1075.06 | 1070.21
x2 = 0.2992 | 1097.6 | 1092.14 | 1087.38 | 1082.37
x2 = 0.3502 | 1111.25 | 1105.64 | 1100.68 | 1095.52
x2 = 0.3985 | 1124.6 | 1118.83 | 1113.68 | 1108.38
x2 = 0.4998 | 1153.99 | 1147.9 | 1142.28 | 1136.65
x2 = 0.5529 | 1170.24 | 1164 | 1158.09 | 1152.21
x2 = 0.6023 | 1185.94 | 1179.46 | 1173.3 | 1167.19
x2 = 0.6504 | 1201.8 | 1195.11 | 1188.66 | 1182.34
x2 = 0.6992 | 1218.48 | 1211.56 | 1204.8 | 1198.22
x2 = 0.7506 | 1236.69 | 1229.48 | 1222.36 | 1215.59
x2 = 0.8003 | 1254.94 | 1247.49 | 1239.98 | 1232.77
x2 = 0.8997 | 1293.47 | 1285.36 | 1277.01 | 1269.11
x2 = 0.9298 | 1305.66 | 1297.3 | 1288.69 | 1280.69
x2 = 0.9505 | 1314.14 | 1305.64 | 1296.8 | 1288.52
x2 = 0.9799 | 1326.37 | 1317.62 | 1308.49 | 1299.98

From the NIST ThermoML archive (doi:10.1016/j.jct.2008.08.013)
